The source of these data is patent US20260297070A1, “CYCLIC [COMPOUND LEFT OUT] WRN INHIBITORS” (Nimbus Wadjet, Inc., priority 2023, published 2026).

This experiment has as its target T1, human Werner helicase (WRN-BV08, Uniprot Q14191, amino acids 517-1235 with L1074F point mutation) (Homo sapiens, UniProt Q14191, L1074F).
T1 construct: Uniprot Q14191, amino acids 517-1235 with L1074F point mutation; TEV-cleavable 8×His (C, cleaved yes); made in house; host or cells: Sf9 insect cells (baculovirus)
The experiment in a line: WRN (BV08) ADP-Glo Assay. Conditions: 0.15 nM WRN, 5 μM ATP, 0.1 nM DNA duplex, 15 min preincubation, 60 min at 25° C., pH 7.5, 1% DMSO; read-out: ADP-Glo_hWRN_IC50. It is filed as biochemical. The method, boiled down: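 Helicase ATPase activity is measured at 25 °C over 60 min using 0.15 nM enzyme, 5 μM ATP and 0.1 nM DNA duplex, final DMSO 1%. ADP production is detected by luminescence, with IC50 derived by curve fitting.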
(In ADP-Glo the light output rises with the ADP produced.)

T1 sequence (Q14191 with tags, fused parts or gaps L1074F limits assumed): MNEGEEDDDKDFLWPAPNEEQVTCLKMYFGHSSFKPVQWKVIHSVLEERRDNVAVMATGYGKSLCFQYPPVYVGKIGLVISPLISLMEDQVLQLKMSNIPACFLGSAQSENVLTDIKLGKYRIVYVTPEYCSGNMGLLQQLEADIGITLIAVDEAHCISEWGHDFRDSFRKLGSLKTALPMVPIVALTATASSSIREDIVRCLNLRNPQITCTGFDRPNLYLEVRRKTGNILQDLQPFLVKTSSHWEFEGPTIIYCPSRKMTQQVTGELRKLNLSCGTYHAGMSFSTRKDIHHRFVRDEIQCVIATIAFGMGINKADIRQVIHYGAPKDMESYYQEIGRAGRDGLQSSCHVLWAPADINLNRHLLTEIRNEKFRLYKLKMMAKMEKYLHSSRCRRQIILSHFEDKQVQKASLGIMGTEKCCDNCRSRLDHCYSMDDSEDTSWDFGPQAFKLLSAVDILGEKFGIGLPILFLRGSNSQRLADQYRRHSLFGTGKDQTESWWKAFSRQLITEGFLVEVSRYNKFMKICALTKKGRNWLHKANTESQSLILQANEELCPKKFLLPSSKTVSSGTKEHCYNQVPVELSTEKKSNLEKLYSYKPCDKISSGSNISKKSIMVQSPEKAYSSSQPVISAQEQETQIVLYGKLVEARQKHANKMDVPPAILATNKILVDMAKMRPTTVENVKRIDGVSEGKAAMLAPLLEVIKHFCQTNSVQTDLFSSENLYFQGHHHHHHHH

Turning to `O=C(Cc1cnn(-c2ccccc2)c1)N(Cc1ccncc1)C1C=CS(=O)(=O)C1` (stereo not drawn) [I-409, N-(1,1-dioxo-2,3-dihydro-1lambda6-thiophen-3-yl)-2-(1-phenyl-1H-pyrazol-4-yl)-N-[(pyridin-4-yl)methyl]acetamide], the IC50 was above 50 µM.

Turning to `O=C(Cc1ccc(-n2cccc2)cc1)N(Cc1ccc(C(F)(F)F)nc1)C1C=CS(=O)(=O)C1` (stereo not drawn) [I-295, N-(1,1-dioxo-2,3-dihydro-1lambda6-thiophen-3-yl)-2-[4-(1H-pyrrol-1-yl)phenyl]-N-{[6-(trifluoromethyl)pyridin-3-yl]methyl}acetamide], the IC50 was 10 to 50 µM. Turning to `O=C(Cc1ccc(-n2cccc2)cc1)N(Cc1ccc2c(c1)OCO2)C1C=CS(=O)(=O)C1` (stereo not drawn) [I-225, N-[(2H-1,3-benzodioxol-5-yl)methyl]-N-(1,1-dioxo-2,3-dihydro-1lambda6-thiophen-3-yl)-2-[4-(1H-pyrrol-1-yl)phenyl]acetamide], the IC50 lay in the range of 5 to 10 µM. Consider `CC(C)(O)c1cc(CN(C(=O)C2Cc3cc(-c4ccc(F)cc4)ccc3O2)C2C=CS(=O)(=O)C2)ccn1` (stereo not drawn) [I-298, N-(1,1-dioxo-2,3-dihydro-1lambda6-thiophen-3-yl)-5-(4-fluorophenyl)-N-{[2-(2-hydroxypropan-2-yl)pyridin-4-yl]methyl}-2,3-dihydro-1-benzofuran-2-carboxamide], for which the IC50 lay in the range of 10 to 50 µM. For `O=C(Cc1ccc(C2CCCC2O)cc1)N(Cc1ccncc1)C1C=CS(=O)(=O)C1` (stereo not drawn) [I-449, N-(1,1-dioxo-2,3-dihydro-1lambda6-thiophen-3-yl)-2-[4-(2-hydroxycyclopentyl)phenyl]-N-[(pyridin-4-yl)methyl]acetamide], the IC50 is above 50 µM. The same measure for `COc1cc(CN(C(=O)C(OC)c2ccc(-c3ccc(F)c(F)c3)cc2F)C2C=CS(=O)(=O)C2)ccn1` (stereo not drawn) [I-45, N-(1,1-dioxo-2,3-dihydro-1lambda6-thiophen-3-yl)-2-methoxy-N-[(2-methoxypyridin-4-yl)methyl]-2-{3,3′,4′-trifluoro-[1,1′-biphenyl]-4-yl}acetamide]: below 0.5 µM; for `O=C(Cc1ccc(-n2cccc2)cc1)N(Cc1cccc(Cl)c1)C1C=CS(=O)(=O)C1` (stereo not drawn) [I-201, N-[(3-chlorophenyl)methyl]-N-(1,1-dioxo-2,3-dihydro-1lambda6-thiophen-3-yl)-2-[4-(1H-pyrrol-1-yl)phenyl]acetamide]: 0.5 to 5 µM. Turning to `O=C(Cc1ccc(C(F)(F)F)c(Cl)c1)N(Cc1ccncc1)C1C=CS(=O)(=O)C1` (stereo not drawn) [I-299, 2-[3-chloro-4-(trifluoromethyl)phenyl]-N-(1,1-dioxo-2,3-dihydro-1lambda6-thiophen-3-yl)-N-[(pyridin-4-yl)methyl]acetamide], the IC50 lay in the range of 10 to 50 µM. As to `O=C(Cc1ncc(-c2ccc(F)cc2)cc1F)N(Cc1ccncc1)C1C=CS(=O)(=O)C1` (stereo not drawn) [I-205, N-(1,1-dioxo-2,3-dihydro-1lambda6-thiophen-3-yl)-2-[3-fluoro-5-(4-fluorophenyl)pyridin-2-yl]-N-[(pyridin-4-yl)methyl]acetamide], the IC50 was 0.5 to 5 µM. With `COC(C(=O)N(Cc1ccnc(C(C)(C)O)c1)[C@@H]1C=CS(=O)(=O)C1)c1ccc(-c2ccc(F)c(F)c2)cc1F` (single isomer, unassigned) [I-2], the IC50 was below 0.5 µM. With `O=C(Cc1ccc(N2CC(F)(F)C2)cc1)N(Cc1ccncc1)C1C=CS(=O)(=O)C1` (stereo not drawn) [I-482, 2-[4-(3,3-difluoroazetidin-1-yl)phenyl]-N-(1,1-dioxo-2,3-dihydro-1lambda6-thiophen-3-yl)-N-[(pyridin-4-yl)methyl]acetamide], the IC50 was above 50 µM. With `O=C(N(Cc1ccncc1)C1C=CS(=O)(=O)C1)C(F)(F)n1cc(-c2ccccc2)nn1` (stereo not drawn) [I-581, N-(1,1-dioxo-2,3-dihydro-1lambda6-thiophen-3-yl)-2,2-difluoro-2-(4-phenyl-1H-1,2,3-triazol-1-yl)-N-[(pyridin-4-yl)methyl]acetamide], the IC50 was above 50 µM.

As for `O=C(Cn1cc(-c2ccc(F)cc2)cn1)N(Cc1nc(C2CC2)cs1)C1C=CS(=O)(=O)C1` (single isomer, unassigned) [I-602], the IC50 was below 0.5 µM. As for `COc1cc(CN(C(=O)C(c2ccc(-c3ccc(F)c(F)c3)cc2F)n2cc(C#N)cn2)[C@@H]2C=CS(=O)(=O)C2)ccn1` (stereo partly drawn) [I-706, 2-(4-cyano-1H-pyrazol-1-yl)-N-[(3R)-1,1-dioxo-2,3-dihydro-1lambda6-thiophen-3-yl]-N-[(2-methoxypyridin-4-yl)methyl]-2-{3,3′,4′-trifluoro-[1,1′-biphenyl]-4-yl}acetamide], the IC50 lay within 0.5 to 5 µM. In the case of `O=C(Cc1cnc(C(F)(F)F)cn1)N(Cc1ccncc1)C1C=CS(=O)(=O)C1` (stereo not drawn) [I-627, N-(1,1-dioxo-2,3-dihydro-1lambda6-thiophen-3-yl)-N-[(pyridin-4-yl)methyl]-2-[5-(trifluoromethyl)pyrazin-2-yl]acetamide], the IC50 is above 50 µM. For `O=C(Cc1ccc(S(F)(F)(F)(F)F)cc1)N(Cc1ccnnc1)C1C=CS(=O)(=O)C1` (stereo not drawn) [I-646, N-(1,1-dioxo-2,3-dihydro-1lambda6-thiophen-3-yl)-2-[4-(pentafluoro-lambda6-sulfanyl)phenyl]-N-[(pyridazin-4-yl)methyl]acetamide], the IC50 lay within 5 to 10 µM. Next, `Cn1cc(CCC(=O)N(Cc2ccncc2)C2C=CS(=O)(=O)C2)c2ccc(Br)cc21` (stereo not drawn) [I-565, 3-(6-bromo-1-methyl-1H-indol-3-yl)-N-(1,1-dioxo-2,3-dihydro-1lambda6-thiophen-3-yl)-N-[(pyridin-4-yl)methyl]propanamide]: above 50 µM; `O=C(Cc1ccc(-n2cccc2)cc1)N(Cc1ccc2ncccc2c1)C1C=CS(=O)(=O)C1` (stereo not drawn) [I-222, N-(1,1-dioxo-2,3-dihydro-1lambda6-thiophen-3-yl)-2-[4-(1H-pyrrol-1-yl)phenyl]-N-[(quinolin-6-yl)methyl]acetamide]: 5 to 10 µM. In the case of `CC(C)(O)c1cc(CN(C(=O)Cn2cc(-c3ccccc3)cn2)[C@@H]2C=CS(=O)(=O)C2)ccn1` [I-43, N-[(3R)-1,1-dioxo-2,3-dihydro-1lambda6-thiophen-3-yl]-N-{[2-(2-hydroxypropan-2-yl)pyridin-4-yl]methyl}-2-(4-phenyl-1H-pyrazol-1-yl)acetamide], the IC50 was below 0.5 µM.

Take `O=C(Cc1ccc(-n2cccc2)cc1F)N(Cc1ccncc1)C1C=CS(=O)(=O)C1` (single isomer, unassigned) [I-127]: the IC50 fell in the range of 0.5 to 5 µM. Regarding `O=C(Cc1ccc(-n2cccc2)cc1)N(Cc1ncccn1)C1C=CS(=O)(=O)C1` (stereo not drawn) [I-483, N-(1,1-dioxo-2,3-dihydro-1lambda6-thiophen-3-yl)-N-[(pyrimidin-2-yl)methyl]-2-[4-(1H-pyrrol-1-yl)phenyl]acetamide], the IC50 is above 50 µM.

Regarding `O=C(Cc1cc2ccccc2s1)N(Cc1ccncc1)C1C=CS(=O)(=O)C1` (stereo not drawn) [I-301, 2-(1-benzothiophen-2-yl)-N-(1,1-dioxo-2,3-dihydro-1lambda6-thiophen-3-yl)-N-[(pyridin-4-yl)methyl]acetamide], the IC50 is 10 to 50 µM.

`O=C(Cc1ccc(C2CCCCC2)cc1)N(Cc1ccncc1)C1C=CS(=O)(=O)C1` (stereo not drawn) [I-164, 2-(4-cyclohexylphenyl)-N-(1,1-dioxo-2,3-dihydro-1lambda6-thiophen-3-yl)-N-[(pyridin-4-yl)methyl]acetamide]: the IC50 is 0.5 to 5 µM. Turning to `O=C(Cn1cc(-c2ccc(F)c(F)c2)cn1)N(Cc1ccnc(OCCN2CCOCC2)c1)C1C=CS(=O)(=O)C1` (stereo not drawn) [I-761, 2-[4-(3,4-difluorophenyl)-1H-pyrazol-1-yl]-N-(1,1-dioxo-2,3-dihydro-1lambda6-thiophen-3-yl)-N-({2-[2-(morpholin-4-yl)ethoxy]pyridin-4-yl}methyl)acetamide], the IC50 is below 0.5 µM. Next, `NCCc1cccn1-c1ccc(CC(=O)N(Cc2ccccc2)C2C=CS(=O)(=O)C2)cc1` (stereo not drawn) [I-268, 2-{4-[2-(2-aminoethyl)-1H-pyrrol-1-yl]phenyl}-N-benzyl-N-(1,1-dioxo-2,3-dihydro-1lambda6-thiophen-3-yl)acetamide]: 5 to 10 µM. Take `COc1cc(CN(C(=O)Cn2cc(-c3ccc(F)cc3)cn2)[C@@H]2C=CS(=O)(=O)C2)ccn1` [I-26, N-[(3R)-1,1-dioxo-2,3-dihydro-1lambda6-thiophen-3-yl]-2-[4-(4-fluorophenyl)-1H-pyrazol-1-yl]-N-[(2-methoxypyridin-4-yl)methyl]acetamide]: the IC50 is below 0.5 µM. Next, `O=C(Cc1ccc(-n2cnnc2)cc1)N(Cc1ccncc1)C1C=CS(=O)(=O)C1` (stereo not drawn) [I-532, N-(1,1-dioxo-2,3-dihydro-1lambda6-thiophen-3-yl)-N-[(pyridin-4-yl)methyl]-2-[4-(4H-1,2,4-triazol-4-yl)phenyl]acetamide]: above 50 µM; `O=C(Cn1cc(-c2ccc(F)c(F)c2)cn1)N(Cc1ccnc(N2CCOCC2)c1)C1C=CS(=O)(=O)C1` (stereo not drawn) [I-759, 2-[4-(3,4-difluorophenyl)-1H-pyrazol-1-yl]-N-(1,1-dioxo-2,3-dihydro-1lambda6-thiophen-3-yl)-N-{[2-(morpholin-4-yl)pyridin-4-yl]methyl}acetamide]: 0.5 to 5 µM.

`COc1cc(CN(C(=O)C(OCC#N)c2ccc(-c3ccc(F)c(F)c3)cc2F)[C@@H]2C=CS(=O)(=O)C2)ccn1` (single isomer, unassigned) [I-686, (2R*)-2-(cyanomethoxy)-N-[(3R)-1,1-dioxo-2,3-dihydro-1lambda6-thiophen-3-yl]-N-[(2-methoxypyridin-4-yl)methyl]-2-{3,3′,4′-trifluoro-[1,1′-biphenyl]-4-yl}acetamide]: the IC50 is 0.5 to 5 µM. Take `O=C1Cc2ccc(CC(=O)N(Cc3ccncc3)C3C=CS(=O)(=O)C3)cc2N1` (stereo not drawn) [I-542, N-(1,1-dioxo-2,3-dihydro-1lambda6-thiophen-3-yl)-2-(2-oxo-2,3-dihydro-1H-indol-6-yl)-N-[(pyridin-4-yl)methyl]acetamide]: the IC50 was above 50 µM.
